Measurements reported in patent US5223519A, “4-hydroxypyridine derivatives, useful for treating circulatory diseases” (Mercian Corporation, priority 1990, dated 1993).
pIC50: −log10 of the molar value. Where two headings read alike, the source gives them in different places.

Tests used:
[1] = test system: blood pressure; experiment: Depressor effect in anesthetized spontaneously hypertensive rats (i.v.); type: in vivo, Male spontaneously hypertensive rats (SHR rats); design: Vasodepression / Duration time: unit not given here; settings: for Duration time / Vasodepression: injected into femoral vein
Procedure: Male spontaneously hypertensive rats (SHR rats), 25-31 weeks old, were anesthetized with 40 mg/kg of pentobarbital sodium injected intraperitoneally. For the measurement of blood pressure, a cannula was inserted into the left carotid artery and connected to a multipurpose polygraph through a pressure transducer. Each animal was allowed to equilibrate for at least 30 minutes before injection and test substances were injected into the femoral vein through a polyethylene tube.

[2] = test system: norepinephrine- or KCl-contracted rat thoracic aorta; experiment: Vasodilating activity: relaxation of contracted thoracic aorta helical strips; design: species or system Male Sprague-Dawley rats; settings: for pIC50: cumulative application, pH 7.4, 37° C.; for relaxation of the aorta compared with papaverine: vs papaverine, norepinephrine or KCl contraction
Procedure: Male Sprague-Dawley rats weighing 250-300 g were sacrificed by cervical dislocation and exsanguinated. The thoracic aorta was dissected out and helical strips, 2 mm wide and 10 mm long, were prepared. Each preparation was mounted in a 10 ml organ bath containing physiological saline solution (Krebs-Henzeleit solution, pH 7.4). The solution was gassed with 95% O2 - 5% CO2 at 37° C. and a resting tension of 0.5 g was applied. Tissues were allowed to equilibrate for at least 60 minutes before the application of test substances. The developed tension was measured isometrically with a force-displacement transducer and recorded on pen-recorder. Tissues had been contracted with 10^-7 M norepinephrine or isotonic 60 mM KCl and test substances were applied cumulatively.

[3] = Solubility
[4] = test system: ICR male mice; experiment: Acute toxicity in mice (i.v.); type: in vivo; settings: five mice per dose
Procedure: The acute toxicity of Mer-A2026A was determined in ICR male mice. Five mice were used at each dose.

[5] = 10^-7 M norepinephrine contraction, read-out: IC50 Norepinephrine (concentration needed to induce a 50% decrease in norepinephrine-induced contraction)
[6] = isotonic 60 mM KCl contraction, read-out: IC50 Isotonic KCl (concentration needed to induce a 50% decrease in KCl-induced contraction)

Row | Structure (SMILES) | Duration time ([1]; 1000 μg/kg) | Vasodepression ([1]; 1000 μg/kg) | pIC50 [2, 5] | pIC50 [2, 6] | solubility in commonly available organic solvents [3] | solubility in water [3] | Duration time ([1]; 10 μg/kg) | Vasodepression ([1]; 10 μg/kg) | Duration time ([1]; 30 μg/kg) | Vasodepression ([1]; 30 μg/kg) | Duration time ([1]; 100 μg/kg) | Vasodepression ([1]; 100 μg/kg) | depressor effect (in words) ([1]; SHR rats, i.v., refers to Table 3) | acute toxicity (survival) ([4]; 250 μg/Kg intravenous) | acute toxicity (deaths) ([4]; 500 μg/Kg intravenous) | relaxation of the aorta compared with papaverine [2]
1 | COc1ccc(Cc2nccc3cc(OC)c(OC)cc23)cc1OC [Papaverine, reference compound] | 2.2 | 52.0 | 5.33 | 4.77 |  |  |  |  |  |  |  |  |  |  |  | 
2 | COc1cc(O)c(C)c(C/C=C(\C)C/C=C/C(C)=C/C(C)C(O)/C(C)=C/C(C)C)n1 (centres unmarked) [Mer-A2026A] |  |  | 6.70 | 6.00 | soluble | insoluble | 0.2 | 3.6 | 9.4 | 25.0 | 24.5 | 47.7 | markedly prolonged the duration time and decreased the blood pressure | all survived | sacrificed the one mouse | more greatly relaxed the aorta than papaverine
3 | C/C=C(\C)C(O)C(C)/C=C(C)/C=C/C/C(C)=C/Cc1nc(OC)cc(O)c1C (centres unmarked) [Mer-A2026B] |  |  | 6.11 | 6.40 | soluble | insoluble |  |  |  |  |  |  |  |  |  | more greatly relaxed the aorta than papaverine
